Measured values as given in US11612601B1, “Targeting epidermal growth factor to treat vascular calcification” (THE FLORIDA INTERNATIONAL UNIVERSITY BOARD OF TRUSTEES, priority 2022, dated 2023).

How the values were obtained:
[1] = system: Osteoblasts (hFOB 1.19); assay: Osteoblast osteogenic gene expression, intracellular TNAP activity and CAV1; format: cell-based, human; details: 7 days
Experimental: (§1) Osteoblasts (from human fetus, hFOB 1.19, ATCC, CRL-11372) were cultured and grown in DMEM containing 10% v/v bovine calf serum and 1% v/v penicillin-streptomycin. Osteoblasts (passage 4-6) were harvested using 0.25% trypsin-EDTA solution (Caisson Labs, TRL01), seeded with a density of 5,200 cell.cm^−2, and incubated for 24 hours at 37° C. and 5% CO2 with controlled humidity. The cells were treated in three groups of control, OS, and OS supplemented with tyrphostin AG1478 (2.5 μM) for 21 days and media changed every three days. […] Similar to the VSMC experiments, EV-free media were added to the cultures on days 6, 13, and 20, and collected 24 hours later on days 7, 14, and 21. Collected media were centrifuged at 1,000×g for 5 min to remove cell debris. EVs were isolated using the ultracentrifugation at 100,000×g for 1 hour.
Following 7 or 14 days of treatment with control, OS, and OS plus EGFR inhibitor media, VSMCs and osteoblasts were lysed in 1 mL TRIzol solution (Invitrogen, 15596018). Total RNA was isolated according to the manufacturer's protocol. To perform the quantitative real time polymerase chain reaction (qRT-PCR), Power SYBR Green RNA-to-CT 1-Step Kit (Applied Biosystems, 4391178) was used. 50 ng isolated template RNA were added to each reaction for qRT-PCR. The results were normalized relative to Glyceraldehyde 3-phosphate dehydrogenase (GAPDH) expression level as the housekeeping control. The relative gene expression levels were calculated using comparative CT method, considering control groups as the reference.
The following human primer sequences were purchased from Integrated DNA Technologies (IDT); GAPDH Forward: […] (SEQ ID NO: 1) and Reverse: […] (SEQ ID NO: 2); RUNX2 Forward: […] (SEQ ID NO: 3) and Reverse: […] (SEQ ID NO: 4); ALPL Forward: […] (SEQ ID NO: 5) and Reverse: […] (SEQ ID NO: 6); Osteocalcin Forward: TCACACTCCTCGCCCTATT (SEQ ID NO: 7) and Reverse: […] (SEQ ID NO: 8).
To assess the activity of intracellular tissue non-specific alkaline phosphatase (TNAP), a colorimetric assay kit (BioVision, K412) was used. VSMCs (n=3) after 14 days and osteoblasts (n=3) after 7 days, were lysed in 120 μL assay buffer. 80 μL of each sample were mixed with 50 μL of 5 mM pNPP solution and incubated for 60 min at 25° C. The colorimetric change resulting from the reaction was detected using a plate reader to measure absorbance at 405 nm. The results were normalized to the total protein for associated samples measured by a BCA protein assay (BioVision, K813).
VSMCs, osteoblasts, isolated EVs (either from cells or mouse aortas), and matrix vesicles (from osteoblasts) were lysed in RIPA lysis and extraction buffer supplemented with protease inhibitor. After adding Laemmli SDS-sample buffer (1:4 v/v, Boston BioProducts, BP-110R) to each lysate, the samples were denatured at 100° C. for 10 min, loaded into 7.5-12% 1-mm SDS-PAGE gel (15 to 20 μg protein per lane), and run at 170 V. The proteins were then transferred to Trans-Blot turbo nitrocellulose membranes (BIO-RAD, 1704158) at 25 V for 7 min.
To quantify the total protein, the membranes were stained using 2% w/v Ponceau stain (Alfa Aesar, AAJ6074409) for 20 min, followed by one wash with 5% acetic acid and milliQ water for 5 min. After imaging, the intensity of each lane was measured in ImageJ for total protein normalization. Membranes were blocked with 5% w/v bovine serum albumin (HyClone, SH30574.01) in TBS-Tween (1×) for 1 hour. […]

[2] = system: Osteoblasts (hFOB 1.19); assay: Matrix vesicles from osteoblast cultures: CAV1 and TNAP activity; format: cell-based, human; details: OS + 2.5 μM
Experimental: as §1
For EV TNAP activity measurement, after ultracentrifugation at 100,000×g for 1 hour, the pellets were re-suspended in 120 μL buffer assay. […]
To quantify the total protein, the membranes were stained using 2% w/v Ponceau stain (Alfa Aesar, AAJ6074409) for 20 min, followed by one wash with 5% acetic acid and milliQ water for 5 min. After imaging, the intensity of each lane was measured in ImageJ for total protein normalization. […] The protein bands were visualized with Odyssey CLx scanner (Li-Cor), and quantified using Image Studio Lite software (Li-Cor).

## COc1cc2ncnc(Nc3cccc(Cl)c3)c2cc1OC [AG1478, tyrphostin AG1478]
[1]; OS + 2.5 μM vs OS, p=0.9
  Gene expression of ALPL in osteoblasts: no significant differences
  Gene expression of Osteocalcin (BGLAP) in osteoblasts: no significant differences
[1]; OS + 2.5 μM
  Gene expression of RUNX2 in osteoblasts: downregulation
  intracellular TNAP activity in osteoblasts: significantly increased
[1]; OS + 2.5 μM, compared to control group, p=0.01
  intracellular CAV1 protein in osteoblasts: significantly increased
[2]; compared to control, days 14 and 21
  CAV1 protein on matrix vesicles released by osteoblasts: lower levels
[2]; days 7, 14, 21
  TNAP activity of matrix vesicles released by osteoblasts: significantly increased
